# Experimental data taken from patent US11013736B2, “Oral solid preparation and use thereof” (WUHAN LL SCIENCE AND TECHNOLOGY DEVELOPMENT CO., LTD., priority 2016, dated 2021).
# Entries after “also recorded” stand apart in the source; their conditions may differ.
# Legend:
# [1] = Comparative experiment of stability between crystalline form III and IV (drying overnight at room temperature, XRD); format: physicochemical
# From the text: (4) Comparative experiment of stability between the crystalline form III and the crystalline form IV
# The Crystalline form III and the crystalline form IV samples were respectively dried overnight at room temperature.
# [2] = Comparative stability test (total impurity content); format: physicochemical; conditions: 25° C., 60% relative humidity; for total impurity content % at 0 months / total impurity content % at 1 month / total impurity content % at 2 months / total impurity content % at 3 months / total impurity content % at 6 months: packed
# Protocol: The stability of an amorphous form, a mixture of the crystalline forms I and the crystal II, the crystalline form II and the crystal form III of the compound of formula (A) were investigated. Specifically, the amorphous form, the mixture of the crystalline form I and the crystalline form II (weight ratio 1:2), the crystalline form II and the crystalline form III were taken 200 mg respectively to be investigated as follows:
# Packing: Polyvinyl chloride (PVC) material ziplock bag (the inner layer) was vacuumized, aluminum foil (the middle layer) was vacuumized, and aluminum foil desiccant (the outer layer) was vacuum and filled in with nitrogen;
# Inspection conditions: 25° C., 60% relative humidity. The indicator was the total impurity content, which is determined by detection of samples three times at each time point with the average value recorded. The time points for sampling include 0, 1, 2, 3 and 6 months after packing.
# [3] = Room temperature competition test between crystalline forms (ethyl acetate suspension, XRD); format: physicochemical; conditions: for Relative stability under room temperature (competition test): ethyl acetate suspension
# Protocol: (1) Competition experiment between the crystalline form I and the crystalline form II
# Equivalent amounts of the crystalline form I and the crystalline form II samples were mixed well, added with 0.8 ml ethyl acetate to form a suspension, stirred overnight and detected by XRD.
# (2) Competition experiment between the crystalline form II and the crystalline form III
# Equivalent amounts of the crystalline form II and the crystalline form III samples were mixed well, added with 0.2 ml ethyl acetate to form a suspension, which was stirred overnight to obtain the crystalline form II determined by XRD detection.
# (3) Competition experiment between crystalline form I and crystalline form III
# Equivalent amounts of the crystalline form I and the crystalline form III samples were mixed uniformly, added with 0.2 ml ethyl acetate to form a suspension, which was stirred overnight, to obtain the crystalline form I determined by XRD detection.
# [4] = tested on: spontaneously hypertensive rats; assay: Antihypertensive efficacy test in spontaneously hypertensive rats (systolic blood pressure and heart rate by implanted sensor); format: in vivo; conditions: SHR; for Systolic blood pressure compared with the control group: after 3 hours of administration; for Systolic blood pressure change, 1 hour after administration / Systolic blood pressure change, 3 hours after administration / Systolic blood pressure change, 5 hours after administration / Systolic blood pressure change, 7 hours after administration / Systolic blood pressure change, 10 hours after administration / Systolic blood pressure change, 24 hours after administration / Systolic blood pressure change, before administration: intragastric; for Systolic blood pressure change, 1 hour after administration / Systolic blood pressure change, 3 hours after administration / Systolic blood pressure change, 5 hours after administration / Systolic blood pressure change, 7 hours after administration / Systolic blood pressure change, 10 hours after administration / Systolic blood pressure change, 24 hours after administration / Heart rates change, 1 hour after administration / Heart rates change, 3 hours after administration / Heart rates change, 5 hours after administration / Heart rates change, 7 hours after administration / Heart rates change, 10 hours after administration / Heart rates change, 24 hours after administration: change vs before administration; for Systolic blood pressure change, 1 hour after administration / Systolic blood pressure change, 3 hours after administration / Systolic blood pressure change, 5 hours after administration / Systolic blood pressure change, 7 hours after administration / Systolic blood pressure change, 10 hours after administration / Systolic blood pressure change, 24 hours after administration / Systolic blood pressure change, before administration / Heart rates change, 1 hour after administration / Heart rates change, 3 hours after administration / Heart rates change, 5 hours after administration / Heart rates change, 7 hours after administration / Heart rates change, 10 hours after administration / Heart rates change, 24 hours after administration / Heart rates change, before administration: average ± standard error; for Systolic blood pressure change, before administration / Heart rates change, before administration: reference value; for Heart rates change, 1 hour after administration / Heart rates change, 3 hours after administration / Heart rates change, 5 hours after administration / Heart rates change, 7 hours after administration / Heart rates change, 10 hours after administration / Heart rates change, 24 hours after administration / Heart rates change, before administration: oral
# Protocol: 12-week-old spontaneously hypertensive rats (hereinafter referred to as SHR, purchased from Beijing Weitong Lihua Experimental Animal Technology Co., Ltd.) were anesthetized with 2.5% sodium pentobarbital for intraperitoneal injection. After that, the blood pressure sensing catheter of hypertension implant was inserted into their abdominal aorta, while the implant was fixed to the abdominal wall, and then postoperative daily care is performed after suturing.
# Rats with systolic blood pressure exceeding 160 mm Hg were divided into 3 groups (control group, compound (A) group and compound (B) group), wherein each group has 8 rats. The control group was administrated 0.5% sodium carboxymethylcellulose (hereinafter referred to as CMC-Na); the compound (B) group and the compound (A) group were respectively administered the compound (B) and the compound (A), both of which were dissolved by 0.5% CMC-Na, by intragastric administration, at a dose of 1 mg/kg (calculated by the effective dose of valsartan) and a volume calculated by 4 mL/kg.
# The systolic blood pressure and heart rate of SHR were compared before and after administration (the systolic blood pressure and heart rate of SHR before administration as reference value), which were detected three times at each time point with the average value recorded.
# [5] = Effect of tabletting processes on the crystalline form II (XRD); format: physicochemical; conditions: 50 mg, single punching machine, XRD vs crude sample
# Protocol: Tabletting method: 50 mg of the crystalline form II was tableted under 20 kg and 25 kg pressure tabletting by a single punching machine.
# The XRD of the obtained sample powder was compared with the XRD of the crude sample, the results are shown in FIG. 8 (from top to bottom: the crude sample, the sample after 25 kg pressure tabletting and the sample after 20 kg pressure tabletting).
# [6] = Influences of high temperature and high humidity on the crystalline form II (XRD); format: physicochemical; conditions: XRD vs crude sample
# Protocol: Two samples of 20 mg of the crystalline form II were respectively placed at 60° C. (sealed and shielded from light) and 85% relative humidity (exposed in the air at room temperature and shielded from light), detected by XRD after 10 days and compared with the XRD of the crude sample.
# [7] = equivalent amounts, 0.2 ml ethyl acetate suspension, stirred overnight, XRD
compound,measurement,setting,value
CCOc1nc2cccc(C(=O)OC(C)OC(=O)OCc3nc(C)c(C)nc3C)c2n1Cc1ccc(-c2ccccc2-c2noc(=O)[n-]2)cc1.[K+] (centres unmarked) [crystalline form III],Portion converted to the crystalline form I,"[1]; dried overnight at room temperature, XRD",no more than 30%
same,Stability at room temperature (drying experiment),[1],superior to that of the crystalline form IV
same,Chemical stability compared with the amorphous form,[2],better than the amorphous form
same,total impurity content % at 0 months,[2],1.56%
same,total impurity content % at 1 month,[2],2.55%
same,total impurity content % at 2 months,[2],2.98%
same,total impurity content % at 3 months,[2],3.34%
same,total impurity content % at 6 months,[2],3.76%
same,"Crystal form transformation, competition form I vs form III",[3]; [7],completely transformed into the crystalline form I
same,"Crystal form transformation, competition form II vs form III",[3]; [7],completely transformed into the crystalline form II
CCOc1nc2cccc(C(=O)OC(C)OC(=O)OCc3nc(C)c(C)nc3C)c2n1Cc1ccc(-c2ccccc2-c2noc(=O)[n-]2)cc1.[K+] (centres unmarked) [mixture of crystalline form I and II],Chemical stability compared with the amorphous form,[2],better than the amorphous form
same,total impurity content % at 0 months,[2],0.90%
same,total impurity content % at 1 month,[2],1.58%
same,total impurity content % at 2 months,[2],2.20%
same,total impurity content % at 3 months,[2],2.40%
same,total impurity content % at 6 months,[2],3.29%
CCOc1nc2cccc(C(=O)OC(C)OC(=O)OCc3nc(C)c(C)nc3C)c2n1Cc1ccc(-c2ccccc2-c2noc(=O)[n-]2)cc1.[K+] (centres unmarked) [crystalline form IV],Crystal form transformation on drying at room temperature,"[1]; dried at room temperature, XRD",converted to the crystalline form I; also recorded: completely transformed into the crystalline form I
same,Stability at room temperature (drying experiment),[1],poor stability
"CCOc1nc2cccc(C(=O)OC(C)OC(=O)OCc3nc(C)c(C)nc3C)c2n1Cc1ccc(-c2ccccc2-c2noc(=O)[n-]2)cc1.[K+] (single isomer, unassigned) [Compound (B), reference compound]",Systolic blood pressure compared with the control group,[4]; 1 mg/kg,significantly decreased
same,"Systolic blood pressure change, 1 hour after administration","[4]; 1 mg/kg, 1 mg/kg",−4.9 ± 4.8 mmHg
same,"Systolic blood pressure change, 3 hours after administration","[4]; 1 mg/kg, 1 mg/kg",−22.0 ± 3.6 mmHg
same,"Systolic blood pressure change, 5 hours after administration","[4]; 1 mg/kg, 1 mg/kg",−30.5 ± 3.5 mmHg
same,"Systolic blood pressure change, 7 hours after administration","[4]; 1 mg/kg, 1 mg/kg",−38.8 ± 2.3 mmHg
same,"Systolic blood pressure change, 10 hours after administration","[4]; 1 mg/kg, 1 mg/kg",−33.0 ± 1.7 mmHg
same,"Systolic blood pressure change, 24 hours after administration","[4]; 1 mg/kg, 1 mg/kg",−10.2 ± 2.1 mmHg
same,"Systolic blood pressure change, before administration",[4]; 1 mg/kg,0.0 ± 0.0 mmHg
same,"Heart rates change, 1 hour after administration","[4]; 1 mg/kg, 1 mg/kg",−3.4 ± 2.6 times/minute
same,"Heart rates change, 3 hours after administration","[4]; 1 mg/kg, 1 mg/kg",−2.33 ± 2.6 times/minute
same,"Heart rates change, 5 hours after administration","[4]; 1 mg/kg, 1 mg/kg",−6.5 ± 2.8 times/minute
same,"Heart rates change, 7 hours after administration","[4]; 1 mg/kg, 1 mg/kg",−6.2 ± 3.0 times/minute
same,"Heart rates change, 10 hours after administration","[4]; 1 mg/kg, 1 mg/kg",−12.3 ± 2.8 times/minute
same,"Heart rates change, 24 hours after administration","[4]; 1 mg/kg, 1 mg/kg",−6.7 ± 2.6 times/minute
same,"Heart rates change, before administration",[4]; 1 mg/kg,0.0 ± 0.0 times/minute
CCOc1nc2cccc(C(=O)OC(C)OC(=O)OCc3nc(C)c(C)nc3C)c2n1Cc1ccc(-c2ccccc2-c2noc(=O)[n-]2)cc1.[K+] (centres unmarked) [crystalline form I],Stability at room temperature (drying experiment),[1],superior to that of the crystalline form IV
same,Chemical stability compared with the amorphous form,[2],better than the amorphous form
same,total impurity content % at 0 months,[2],1.11%
same,total impurity content % at 1 month,[2],1.62%
same,total impurity content % at 2 months,[2],2.34%
same,total impurity content % at 3 months,[2],2.49%
same,total impurity content % at 6 months,[2],3.10%
same,Content of the crystalline form I in the obtained product,"[3]; equivalent amounts of form I and form II, 0.8 ml ethyl acetate suspension, stirred overnight, XRD",about 5%
same,Relative stability under room temperature (competition test),[3],better than that of the crystalline form III
CCOc1nc2cccc(C(=O)OC(C)OC(=O)OCc3nc(C)c(C)nc3C)c2n1Cc1ccc(-c2ccccc2-c2noc(=O)[n-]2)cc1.[K+] (centres unmarked) [crystalline form II],Stability at room temperature (drying experiment),[1],superior to that of the crystalline form IV
same,"Crystal form after tabletting, 20 kg pressure",[5],remains unchanged
same,"Crystal form after tabletting, 25 kg pressure",[5],remains unchanged
same,Chemical stability compared with the amorphous form,[2],better than the amorphous form
same,total impurity content % at 0 months,[2],1.29%
same,total impurity content % at 1 month,[2],1.43%
same,total impurity content % at 2 months,[2],1.59%
same,total impurity content % at 3 months,[2],1.82%
same,total impurity content % at 6 months,[2],1.87%
same,Crystal form after 10 days at 85% relative humidity,"[6]; exposed in the air at room temperature, shielded from light",remains unchanged
same,Crystal form after 10 days at 60° C.,[6]; sealed and shielded from light,remains unchanged
same,Relative stability under room temperature (competition test),[3],better than that of the crystalline form I; also recorded: better than that of the crystalline form III
"CCOc1nc2cccc(C(=O)OC(C)OC(=O)OCc3nc(C)c(C)nc3C)c2n1Cc1ccc(-c2ccccc2-c2noc(=O)[n-]2)cc1.[K+] (single isomer, unassigned) [Compound (A)]",Lowering of heart rate compared with the compound (B) group,[4]; 1 mg/kg,more potent with longer-lasting of lowering heart rate
same,Antihypertensive effect compared with the compound (B) group,[4]; 1 mg/kg intragastric,more potent with longer-lasting antihypertensive effect
same,Systolic blood pressure compared with the control group,[4]; 1 mg/kg,significantly decreased
same,"Systolic blood pressure change, 1 hour after administration","[4]; 1 mg/kg, 1 mg/kg",−7.0 ± 3.4 mmHg
same,"Systolic blood pressure change, 3 hours after administration","[4]; 1 mg/kg, 1 mg/kg",−34.3 ± 1.9 mmHg
same,"Systolic blood pressure change, 5 hours after administration","[4]; 1 mg/kg, 1 mg/kg",−46.5 ± 2.5 mmHg
same,"Systolic blood pressure change, 7 hours after administration","[4]; 1 mg/kg, 1 mg/kg",−49.4 ± 4.1 mmHg
same,"Systolic blood pressure change, 10 hours after administration","[4]; 1 mg/kg, 1 mg/kg",−45.3 ± 3.3 mmHg
same,"Systolic blood pressure change, 24 hours after administration","[4]; 1 mg/kg, 1 mg/kg",−25.9 ± 3.4 mmHg
same,"Systolic blood pressure change, before administration",[4]; 1 mg/kg,0.0 ± 0.0 mmHg
same,"Heart rates change, 1 hour after administration","[4]; 1 mg/kg, 1 mg/kg",−3.6 ± 2.4 times/minute
same,"Heart rates change, 3 hours after administration","[4]; 1 mg/kg, 1 mg/kg",−5.0 ± 2.5 times/minute
same,"Heart rates change, 5 hours after administration","[4]; 1 mg/kg, 1 mg/kg",−10.1 ± 3.0 times/minute
same,"Heart rates change, 7 hours after administration","[4]; 1 mg/kg, 1 mg/kg",−17.5 ± 3.0 times/minute
same,"Heart rates change, 10 hours after administration","[4]; 1 mg/kg, 1 mg/kg",−25.4 ± 2.4 times/minute
same,"Heart rates change, 24 hours after administration","[4]; 1 mg/kg, 1 mg/kg",−28.6 ± 8 times/minute
same,"Heart rates change, before administration",[4]; 1 mg/kg,0.0 ± 0.0 times/minute
